Measurements reported in patent US20040209914A1, “Aromatic sulfone hydroxamic acids and their use as protease inhibitors” (priority 2000, published 2004).
Counter-ions that a name gives are not always drawn.

How the values were obtained:
Recombinant human MMP-2 = target: T1, Recombinant human MMP-2 (Homo sapiens, UniProt P08253); experiment: biochemical; conditions: fluorogenic MCA-peptide substrate, pH 7.5, room temperature; read-out: MMP-2 IC50
T1 construct: made in house
T1 sequence (P08253 110-660): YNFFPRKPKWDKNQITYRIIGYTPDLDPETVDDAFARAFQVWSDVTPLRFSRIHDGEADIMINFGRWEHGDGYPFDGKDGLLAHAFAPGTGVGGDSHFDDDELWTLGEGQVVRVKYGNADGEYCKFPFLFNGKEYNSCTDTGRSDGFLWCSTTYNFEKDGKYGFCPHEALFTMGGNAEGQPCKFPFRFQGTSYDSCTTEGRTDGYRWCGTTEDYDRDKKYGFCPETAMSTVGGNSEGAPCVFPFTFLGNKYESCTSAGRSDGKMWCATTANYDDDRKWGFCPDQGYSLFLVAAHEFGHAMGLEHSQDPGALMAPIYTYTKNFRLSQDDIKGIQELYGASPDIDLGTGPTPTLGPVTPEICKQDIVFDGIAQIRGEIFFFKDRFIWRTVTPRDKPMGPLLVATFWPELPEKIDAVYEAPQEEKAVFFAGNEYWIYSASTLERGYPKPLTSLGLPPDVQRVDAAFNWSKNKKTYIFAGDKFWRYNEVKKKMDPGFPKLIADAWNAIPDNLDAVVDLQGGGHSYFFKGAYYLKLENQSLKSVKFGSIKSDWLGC
Description: (§1) Recombinant human MMP-1, MMP-2, MMP-9, MMP-13, and were used in this assay. These enzymes were prepared in the Assignee's es following usual laboratory procedures. Specifics for preparing and e enzymes can be found in the scientific literature describing these See, e.g., Enzyme Nomenclature (Academic Press, San Diego, Calif., d the citations therein).
The MMP-2 was obtained from MMP-2 expressing transfected cells provided by Dr. Gregory Goldberg of Washington University.
(§2) The enzyme substrate was a methoxycoumarin-containing polypeptide having the following sequence:
(§3) MCA-ProLeuGlyLeuDpaAlaArgNH2
(§4) Here, “MCA” is methoxycoumarin and “Dpa” is 3-(2,4-dinitrophenyl)-L-2,3-diaminopropionyl alanine.
(§5) These solutions were then compared to a control (which contained equal amount of DMSO/buffer solution, but no hydroxamate compound) using Microfluor™ White Plates (Dynatech, Chantilly, Va.). Specifically, The MMPs were activated with APMA or trypsin. […] The control likewise was incubated at room temperature in separate plates with the MMP and 4 uM of the MMP substrate. […] Inhibition was measured as a reduction in fluorescent intensity as a function of inhibitor concentration using a Perkin Elmer (Norwalk, Conn.) L550 plate reader. The IC50's were then calculated from these measurements.

Recombinant human MMP-13 = target: T2, Recombinant human MMP-13 (Homo sapiens, UniProt P45452); experiment: biochemical; conditions: fluorogenic MCA-peptide substrate, pH 7.5, room temperature; read-out: MMP-13 IC50
T2 construct: made in house; host or cells: baculovirus / insect cells
Description: as §1
The expressed proenzyme was first purified over a heparin agarose column, and then over a chelating zinc chloride column. The proenzyme was then activated by APMA for use in the assay.
as §2, §3, §4, §5

SMILES | IC50 (Recombinant human MMP-2) [µM] | IC50 (Recombinant human MMP-13) [µM]
C[C@H]1C[C@H](C)CN(C(=O)C2CCN(c3ccc(S(=O)(=O)C4(C(=O)NO)CCNCC4)cc3)CC2)C1 (relative stereo) [Example 72, rel-4-[[4-[4-[[(3R,5R)-3,5-dimethyl-1-piperidinyl]carbonyl]-1-piperidinyl]phenyl]sulfonyl]-N-hydroxy-4-piperidinecarboxamide, monohydrochloride] | 10 | 
CCCCOc1ccc(C(=O)C2CCN(c3ccc(S(=O)(=O)C4(C(=O)NO)CCOCC4)cc3)CC2)cc1 [Example 329] | 1.8 | 0.02
O=C(NO)C1(S(=O)(=O)c2ccc(N3CCC(SCc4cccc(C(F)(F)F)c4)CC3)cc2)CCN(C2CC2)CC1 [Example 149] | 0.21 | 0.0169
O=C(NO)C1(S(=O)(=O)c2ccc(N3CCC(c4ccc(Cl)cc4)CC3)cc2)CCN(CC2CC2)CC1 [Example 266] |  | 0.0017
CN(C)Cc1ccc(C(=O)C2CCN(c3ccc(S(=O)(=O)C4(C(=O)NO)CCOCC4)cc3)CC2)cc1 [Example 384] | 0.0529 | 0.0029
COCCN1CCC(C(=O)NO)(S(=O)(=O)c2ccc(N3CCC(C(=O)c4cccc(OC)c4)CC3)c(Cl)c2)CC1 [Example 276] | 2.73 | 0.127
O=C(Cc1cccs1)C1CCN(c2ccc(S(=O)(=O)C3(C(=O)NO)CCOCC3)cc2)CC1 [Example 387] | 0.344 | 0.0045
COCCN1CCC(C(=O)NO)(S(=O)(=O)c2ccc(N3CCC(C(=O)c4ccc(CCC(C)O)cc4)CC3)cc2)CC1 (stereo not drawn) [Example 245] | 0.0386 | 0.0011
COCCN1CCC(C(=O)NO)(S(=O)(=O)c2ccc(N3CCC(C(=O)c4ccc(COCC5CC5)cc4)CC3)cc2)CC1 [Example 239] | 0.0758 | 0.0006
COCCN1CCC(C(=O)NO)(S(=O)(=O)c2ccc(N3CCC(c4nc5ccccc5o4)CC3)cc2)CC1 [Example 258] | 0.0454 | 0.0141
C#CCN1CCC(C(=O)NO)(S(=O)(=O)c2ccc(N3CCC(C(=O)c4ccc(NC)cc4)CC3)cc2)CC1 [Example 173] | 0.117 | 0.0009
COCCN1CCC(C(=O)NO)(S(=O)(=O)c2ccc(N3CCC(C(=O)c4ccc(OCCC5CCCCC5)cc4)CC3)cc2)CC1 [Example 228] | 0.155 | 0.0195
CCN1CCC(C(=O)NO)(S(=O)(=O)c2ccc(N3CCC(C(=O)c4ccc(NC)cc4)CC3)cc2)CC1 [Example 172] | 0.649 | 0.0031
CC1CC(C)CN(C(=O)C2CCN(c3ccc(S(=O)(=O)C4(C(=O)NO)CCN(C(=O)CNCC(F)(F)F)CC4)cc3)CC2)C1 (stereo not drawn) [Example 113] | 10 | 
COCCN1CCC(C(=O)NO)(S(=O)(=O)c2ccc(N3CCC(C(=O)c4ccc(CCCC(C)O)cc4)CC3)cc2)CC1 (stereo not drawn) [Example 244] |  | 0.0002
COc1ccc(C(=O)C2CCN(c3ccc(S(=O)(=O)C4(C(=O)NO)CCN(C(=O)c5ccco5)CC4)cc3)CC2)cc1 [Example 139] | 0.33 | 0.0018
COCCN1CCC(C(=O)NO)(S(=O)(=O)c2ccc(N3CCC(C(=O)c4ccc(OC(C)C)c(F)c4)CC3)cc2)CC1 [Example 250] | 0.107 | 0.0021
O=C(NO)C1(S(=O)(=O)c2ccc(N3CCC(SCc4ccccc4Cl)CC3)cc2)CCN(C2CC2)CC1 [Example 147] | 0.145 | 0.02
COCCN1CCC(C(=O)NO)(S(=O)(=O)c2ccc(N3CCC(Sc4nccs4)CC3)cc2)CC1 [Example 256] | 0.0354 | 0.0075
C=CCN1CCC(C(=O)NO)(S(=O)(=O)c2ccc(N3CCC(C(=O)c4ccc(NC)cc4)CC3)cc2)CC1 [Example 161] | 0.235 | 0.0003
COc1ccc(C(=O)C2CCN(c3ccc(S(=O)(=O)C4(C(=O)NO)CCNCC4)cc3)CC2)cc1 [Example 140] | 0.8 | 0.0181
O=C(NO)C1(S(=O)(=O)c2ccc(N3CCC(c4ccc(F)cc4)CC3)cc2)CCN(C2CC2)CC1 [Example 259] | 0.0006 | 0.0004
CN(C)CCN1CCN(C(=O)C2CCN(c3ccc(S(=O)(=O)C4(C(=O)NO)CCOCC4)cc3)CC2)CC1 [Example 19] | 10 | 

SMILES | IC50 (Recombinant human MMP-2) [µM] | IC50 (Recombinant human MMP-13) [µM]
COCCN1CCC(C(=O)NO)(S(=O)(=O)c2ccc(N3CCC(C(=O)c4ccc(CN5CCOCC5)cc4)CC3)cc2)CC1 [Example 240] | 0.086 | 0.0028
CCCc1ccc(C(=O)C2CCN(c3ccc(S(=O)(=O)C4(C(=O)NO)CCN(S(C)(=O)=O)CC4)cc3)CC2)cc1 [Example 165] | 1.75 | 0.0859
O=C(NO)C1(S(=O)(=O)c2ccc(N3CCC(SCc4ccc(OC(F)(F)F)cc4)CC3)cc2)CCN(C2CC2)CC1 [Example 143] | 0.1 | 0.0021
COCCN1CCC(C(=O)NO)(S(=O)(=O)c2ccc(N3CCC(C(=O)c4ccc(CO)cc4)CC3)cc2)CC1 [Example 238] | 0.0621 | 0.0018
O=C(c1ccc(CC2CCCCC2)cc1)C1CCN(c2ccc(S(=O)(=O)C3(C(=O)NO)CCN(C4CC4)CC3)cc2)CC1 [Example 198] | 2.57 | 0.012
Cc1ccc(C2CCN(c3ccc(S(=O)(=O)C4(C(=O)NO)CCN(CC5CC5)CC4)cc3)CC2)cc1 [Example 273] | 0.0134 | 0.0025
O=C(c1ccc(CN2CCCC2)cc1)C1CCN(c2ccc(S(=O)(=O)C3(C(=O)NO)CCOCC3)cc2)CC1 [Example 385] | 0.0346 | 0.0032
Cn1ccc2cc(C(=O)C3CCN(c4ccc(S(=O)(=O)C5(C(=O)NO)CCOCC5)cc4)CC3)ccc21 [Example 340] | 10 | 
O=C(NO)C1(S(=O)(=O)c2ccc(N3CCC(N4CCc5ccccc54)CC3)cc2)CCOCC1 [Example 383] | 0.382 | 0.0369
COCCN1CCC(C(=O)NO)(S(=O)(=O)c2ccc(N3CCC(c4ccc(F)cc4)CC3)cc2)CC1 [Example 262] | 0.0017 | 0.001
O=C(NO)C1(S(=O)(=O)c2ccc(N3CCC(SCc4ccc(OC(F)(F)F)cc4)CC3)cc2)CCNCC1 [Example 146] | 0.2 | 0.004
COCCN1CCC(C(=O)NO)(S(=O)(=O)c2ccc(N3CCC(C(=O)c4ccc(C=C(C)C)s4)CC3)cc2)CC1 [Example 122] | 0.106 | 0.0001
COCCN1CCC(C(=O)NO)(S(=O)(=O)c2ccc(N3CCC(C(=O)c4cccc(C)c4)CC3)c(Cl)c2)CC1 [Example 277] | > 10 | 0.275
CC1CC(C)CN(C(=O)C2CCN(c3ccc(S(=O)(=O)C4(C(=O)NO)CCN(C(=O)CN5CCN(CCN(C)C)CC5)CC4)cc3)CC2)C1 (stereo not drawn) [Example 111] | 10 | 
COCCN1CCC(C(=O)NO)(S(=O)(=O)c2ccc(N3CCC(C(=O)c4ccc(C)cc4)CC3)c(Cl)c2)CC1 [Example 275] | 6.74 | 0.184
C=CCN1CCC(C(=O)NO)(S(=O)(=O)c2ccc(N3CCC(C(=O)c4ccc(CCC)cc4)CC3)cc2)CC1 [Example 159] | 0.0322 | 0.0005
C[C@@H]1CN(C(=O)C2CCN(c3ccc(S(=O)(=O)C4(C(=O)NO)CCOCC4)cc3)CC2)C[C@H](C)O1 [Example 30] | > 10 | 0.0181
O=C(Cc1ccccc1)C1CCN(c2ccc(S(=O)(=O)C3(C(=O)NO)CCOCC3)cc2)CC1 [Example 386] | 1.9 | 0.0152
CN(C)c1ccc(C(=O)C2CCN(c3ccc(S(=O)(=O)C4(C(=O)NO)CCOCC4)cc3)CC2)cc1 [Example 320] | 10 | 
O=C(NO)C1(S(=O)(=O)c2ccc(N3CCC(c4nnc(-c5ccc(C(F)(F)F)cc5)o4)CC3)cc2)CCOCC1 [Example 375] | 2.66 | 0.0344
CS(=O)(=O)N1CCC(C(=O)NO)(S(=O)(=O)c2ccc(N3CCC(C(=O)c4ccc5ccccc5c4)CC3)cc2)CC1 [Example 166] | > 10 | 0.438
C[C@@H]1C[C@H](C)CN(C(=O)C2CCN(c3ccc(S(=O)(=O)C4(C(=O)NO)CCNCC4)cc3)CC2)C1 [Example 74, rel-4-[[4-[4-[[(3R,5S)-3,5-dimethyl-1-piperidinyl]carbonyl]-1-piperidinyl]phenyl]sulfonyl]-N-hydroxy-4-piperidinecarboxamide, monohydrochloride] | 10 | 
